# Key:
# [1] = tested on: Tyrosine-protein kinase ABL1 (Homo sapiens), P00519 [Y253F]; test: Inhibition of recombinant human Abl Y253F mutant (27 to end residues) at 1 uM using EAIYAAPFAKKK as substrate after 40 mins in presence of [gamma-33P]ATP by scintillation counting method
# [2] = target: Tyrosine-protein kinase ABL1 (Homo sapiens) (UniProt P00519); test: Inhibition of recombinant full-length human Abl at 1 uM using EAIYAAPFAKKK as substrate after 40 mins in presence of [gamma-33P]ATP by scintillation counting method
# [3] = target: Activin receptor type-1 (Homo sapiens) (UniProt Q04771); test: Inhibition of recombinant human ALK2 (147 to end residues) at 1 uM using casein as substrate after 40 mins in presence of [gamma-33P]ATP by scintillation counting method
# [4] = target: CDK3/Cyclin E (Homo sapiens) (UniProt P24864+Q00526); test: Inhibition of recombinant full-length human CDK3/Cyclin E at 1 uM using histone H1 as substrate after 40 mins in presence of [gamma-33P]ATP by scintillation counting method; type: protein-complex assay
# [5] = target: Mitogen-activated protein kinase kinase kinase 5 (Homo sapiens) (UniProt Q99683); test: Inhibition of recombinant human ASK1 (649 to 946 residues) at 1 uM using myelin basic protein as substrate after 40 mins in presence of [gamma-33P]ATP by scintillation counting method
# [6] = target: Serine/threonine-protein kinase BRSK1 (Homo sapiens) (UniProt Q8TDC3); test: Inhibition of recombinant human BrSK1 (2 to end residues) at 1 uM using KKKVSRSGLYRSPSMPENLNRPR as substrate after 40 mins in presence of [gamma-33P]ATP by scintillation counting method
# [7] = tested on: Saccharomyces cerevisiae; test: Inhibition of recombinant Saccharomyces cerevisiae CK1alpha (2 to 298 residues) at 1 uM using KRRRALS(p)VASLPGL as substrate after 40 mins in presence of [gamma-33P]ATP by scintillation counting method
# [8] = tested on: Mast/stem cell growth factor receptor Kit (Homo sapiens), P10721 [V654A]; test: Inhibition of recombinant human cKit V654A mutant (544 to end residues) at 1 uM using GGMEDIYFEFMGGKKK as substrate after 40 mins in presence of [gamma-33P]ATP by scintillation counting method
# [9] = target: Dual specificity protein kinase CLK2 (Homo sapiens) (UniProt P49760); test: Inhibition of recombinant human CLK2 (138 to end residues) at 1 uM using YRRAAVPPSPSLSRHSSPHQS(p)EDEEE as substrate after 40 mins in presence of [gamma-33P]ATP by scintillation counting method
# [10] = target: Dual specificity protein kinase CLK3 (Homo sapiens) (UniProt P49761); test: Inhibition of recombinant full-length human CLK3 at 1 uM using ERMRPRKRQGSVRRRV as substrate after 40 mins in presence of [gamma-33P]ATP by scintillation counting method
# [11] = target: Mitogen-activated protein kinase 9 (Homo sapiens) (UniProt P45984); test: Inhibition of recombinant full-length human JNK2alpha2 at 1 uM using ATF2 as substrate after 40 mins in presence of [gamma-33P]ATP by scintillation counting method
# [12] = target: Dual specificity mitogen-activated protein kinase kinase 1 (Homo sapiens) (UniProt Q02750); test: Inhibition of recombinant full-length human MEK1 at 1 uM using inactive MAPK2 as substrate after 40 mins in presence of [gamma-33P]ATP by scintillation counting method
# [13] = target: Misshapen-like kinase 1 (Homo sapiens) (UniProt Q8N4C8); test: Inhibition of recombinant human MINK (1 to 310 residues) at 1 uM using myelin basic protein as substrate after 40 mins in presence of [gamma-33P]ATP by scintillation counting method
# [14] = target: Dual specificity mitogen-activated protein kinase kinase 7 (Homo sapiens) (UniProt O14733); test: Inhibition of recombinant human MKK7beta (2 to end residues) at 1 uM using inactive JNK171 as substrate after 40 mins in presence of [gamma-33P]ATP by scintillation counting method
# [15] = target: Serine/threonine-protein kinase Nek11 (Homo sapiens) (UniProt Q8NG66); test: Inhibition of recombinant full-length human NEK11 at 1 uM using myelin basic protein as substrate after 40 mins in presence of [gamma-33P]ATP by scintillation counting method
# [16] = target: Phosphatidylinositol 3-kinase C2 domain-containing subunit gamma (Homo sapiens) (UniProt O75747); test: Inhibition of recombinant human PI3KC2gamma (468 to 1203 residues) at 1 uM phosphatidylinositol/phosphatidylserine as substrate after 40 mins in presence of [gamma-33P]ATP by scintillation counting method
# [17] = target: Protein kinase C zeta type (Homo sapiens) (UniProt Q05513); test: Inhibition of recombinant human PKCzeta (2 to end residues) at 1 uM using ERMRPRKRQGSVRRRV as substrate after 40 mins in presence of [gamma-33P]ATP by scintillation counting method
# [18] = target: Serine/threonine-protein kinase D3 (Homo sapiens) (UniProt O94806); test: Inhibition of recombinant full-length human PKD3 at 1 uM using KKLRRTLSVA as substrate after 40 mins in presence of [gamma-33P]ATP by scintillation counting method
# [19] = target: cGMP-dependent protein kinase 1 (Homo sapiens) (UniProt Q13976); test: Inhibition of recombinant full-length human PKG1alpha at 1 uM using RRRLSFAEPG as substrate after 40 mins in presence of [gamma-33P]ATP by scintillation counting method
# [20] = target: Tyrosine-protein kinase FRK (Homo sapiens) (UniProt P42685); test: Inhibition of recombinant human PTK5 (218 to end residues) at 1 uM using GGEEEEYFELVKKKK as substrate after 40 mins in presence of [gamma-33P]ATP by scintillation counting method
# [21] = tested on: Proto-oncogene tyrosine-protein kinase receptor Ret (Homo sapiens), P07949 [V804M]; test: Inhibition of recombinant human RET V804M mutant (658 to end residues) at 1 uM using KKKVSRSGLYRSPSMPENLNRPR as substrate after 40 mins in presence of [gamma-33P]ATP by scintillation counting method
# [22] = target: Serine/threonine-protein kinase 33 (Homo sapiens) (UniProt Q9BYT3); test: Inhibition of recombinant full-length human STK33 at 1 uM using myelin basic protein as substrate after 40 mins in presence of [gamma-33P]ATP by scintillation counting method
# [23] = target: Serine/threonine-protein kinase SIK1 (Homo sapiens) (UniProt P57059); test: Inhibition of recombinant human SIK (1 to 281 residues) at 1 uM using AMARAASAAALARRR as substrate after 40 mins in presence of [gamma-33P]ATP by scintillation counting method
# [24] = target: Serine/threonine-protein kinase VRK2 (Homo sapiens) (UniProt Q86Y07); test: Inhibition of recombinant human VRK2 (1 to 336 residues) at 1 uM using casein as substrate after 40 mins in presence of [gamma-33P]ATP by scintillation counting method
# Phosphatidylinositol 3-kinase C2 domain-containing subunit gamma (Homo sapiens), sequence (O75747 whole entry, the tested form may be a part): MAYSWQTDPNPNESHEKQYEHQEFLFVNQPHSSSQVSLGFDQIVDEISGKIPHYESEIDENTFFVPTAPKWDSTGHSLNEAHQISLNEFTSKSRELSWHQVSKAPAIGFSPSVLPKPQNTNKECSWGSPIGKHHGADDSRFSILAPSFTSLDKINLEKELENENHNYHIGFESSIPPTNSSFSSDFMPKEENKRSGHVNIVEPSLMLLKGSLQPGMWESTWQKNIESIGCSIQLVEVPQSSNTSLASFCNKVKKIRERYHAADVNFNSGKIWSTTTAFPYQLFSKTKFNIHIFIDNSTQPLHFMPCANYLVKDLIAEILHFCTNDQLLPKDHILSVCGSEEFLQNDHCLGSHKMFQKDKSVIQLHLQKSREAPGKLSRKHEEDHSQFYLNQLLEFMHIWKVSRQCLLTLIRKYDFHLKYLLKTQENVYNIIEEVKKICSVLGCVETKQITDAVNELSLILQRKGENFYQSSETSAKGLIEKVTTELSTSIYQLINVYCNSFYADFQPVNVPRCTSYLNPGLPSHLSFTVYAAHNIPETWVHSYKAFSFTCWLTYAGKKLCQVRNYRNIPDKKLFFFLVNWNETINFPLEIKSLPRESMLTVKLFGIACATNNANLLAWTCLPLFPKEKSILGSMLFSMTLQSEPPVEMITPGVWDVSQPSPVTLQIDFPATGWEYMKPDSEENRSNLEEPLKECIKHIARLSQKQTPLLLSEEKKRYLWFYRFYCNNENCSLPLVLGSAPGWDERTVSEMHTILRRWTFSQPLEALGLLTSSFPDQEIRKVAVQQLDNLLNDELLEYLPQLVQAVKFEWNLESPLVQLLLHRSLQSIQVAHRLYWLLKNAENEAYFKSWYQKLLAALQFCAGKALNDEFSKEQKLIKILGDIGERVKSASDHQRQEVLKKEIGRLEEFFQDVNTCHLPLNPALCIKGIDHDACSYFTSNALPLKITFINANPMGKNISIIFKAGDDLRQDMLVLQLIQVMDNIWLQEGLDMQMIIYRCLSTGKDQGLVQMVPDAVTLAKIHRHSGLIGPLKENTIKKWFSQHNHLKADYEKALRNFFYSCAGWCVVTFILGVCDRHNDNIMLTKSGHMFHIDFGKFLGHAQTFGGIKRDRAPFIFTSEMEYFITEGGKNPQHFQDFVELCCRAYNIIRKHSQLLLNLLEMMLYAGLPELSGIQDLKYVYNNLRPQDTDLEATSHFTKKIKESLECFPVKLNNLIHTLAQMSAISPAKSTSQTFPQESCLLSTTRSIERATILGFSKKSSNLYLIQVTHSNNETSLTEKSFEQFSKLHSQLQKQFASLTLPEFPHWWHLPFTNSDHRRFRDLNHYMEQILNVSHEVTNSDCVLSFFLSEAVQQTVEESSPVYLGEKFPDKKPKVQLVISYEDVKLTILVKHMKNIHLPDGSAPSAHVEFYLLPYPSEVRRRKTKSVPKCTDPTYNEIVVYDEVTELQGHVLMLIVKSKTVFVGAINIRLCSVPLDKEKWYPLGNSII
# Proto-oncogene tyrosine-protein kinase receptor Ret (Homo sapiens), P07949 [V804M], sequence (P07949 whole entry V804M): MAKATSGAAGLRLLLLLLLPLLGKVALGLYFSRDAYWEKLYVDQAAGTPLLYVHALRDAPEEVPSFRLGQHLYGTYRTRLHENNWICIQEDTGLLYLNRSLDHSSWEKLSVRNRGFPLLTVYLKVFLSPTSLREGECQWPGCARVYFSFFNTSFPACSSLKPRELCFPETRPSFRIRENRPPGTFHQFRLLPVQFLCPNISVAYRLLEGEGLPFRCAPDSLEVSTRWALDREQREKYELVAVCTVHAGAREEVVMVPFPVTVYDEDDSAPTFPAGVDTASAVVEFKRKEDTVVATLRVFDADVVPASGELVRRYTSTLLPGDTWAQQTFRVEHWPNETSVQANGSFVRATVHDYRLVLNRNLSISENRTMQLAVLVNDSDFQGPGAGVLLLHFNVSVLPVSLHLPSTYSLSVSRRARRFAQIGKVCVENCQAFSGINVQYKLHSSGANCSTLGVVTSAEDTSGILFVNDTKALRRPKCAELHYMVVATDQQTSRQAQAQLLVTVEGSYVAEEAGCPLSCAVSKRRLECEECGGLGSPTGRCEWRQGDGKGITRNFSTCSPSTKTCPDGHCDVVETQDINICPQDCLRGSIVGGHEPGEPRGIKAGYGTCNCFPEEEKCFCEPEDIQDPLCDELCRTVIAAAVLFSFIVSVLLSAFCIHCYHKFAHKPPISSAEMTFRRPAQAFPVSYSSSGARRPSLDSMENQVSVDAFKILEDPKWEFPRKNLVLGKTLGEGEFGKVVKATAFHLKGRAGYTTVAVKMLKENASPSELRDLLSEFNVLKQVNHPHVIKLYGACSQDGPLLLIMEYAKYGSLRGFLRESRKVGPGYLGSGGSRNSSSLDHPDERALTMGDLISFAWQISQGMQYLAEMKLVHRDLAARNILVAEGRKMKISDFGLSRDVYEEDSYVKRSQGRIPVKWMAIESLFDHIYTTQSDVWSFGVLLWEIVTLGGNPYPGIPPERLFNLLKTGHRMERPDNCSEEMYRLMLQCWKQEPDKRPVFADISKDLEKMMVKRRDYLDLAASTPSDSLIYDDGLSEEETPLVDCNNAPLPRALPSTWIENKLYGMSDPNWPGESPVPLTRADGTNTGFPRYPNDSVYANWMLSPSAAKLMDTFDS
# Serine/threonine-protein kinase BRSK1 (Homo sapiens), sequence (Q8TDC3 whole entry, the tested form may be a part): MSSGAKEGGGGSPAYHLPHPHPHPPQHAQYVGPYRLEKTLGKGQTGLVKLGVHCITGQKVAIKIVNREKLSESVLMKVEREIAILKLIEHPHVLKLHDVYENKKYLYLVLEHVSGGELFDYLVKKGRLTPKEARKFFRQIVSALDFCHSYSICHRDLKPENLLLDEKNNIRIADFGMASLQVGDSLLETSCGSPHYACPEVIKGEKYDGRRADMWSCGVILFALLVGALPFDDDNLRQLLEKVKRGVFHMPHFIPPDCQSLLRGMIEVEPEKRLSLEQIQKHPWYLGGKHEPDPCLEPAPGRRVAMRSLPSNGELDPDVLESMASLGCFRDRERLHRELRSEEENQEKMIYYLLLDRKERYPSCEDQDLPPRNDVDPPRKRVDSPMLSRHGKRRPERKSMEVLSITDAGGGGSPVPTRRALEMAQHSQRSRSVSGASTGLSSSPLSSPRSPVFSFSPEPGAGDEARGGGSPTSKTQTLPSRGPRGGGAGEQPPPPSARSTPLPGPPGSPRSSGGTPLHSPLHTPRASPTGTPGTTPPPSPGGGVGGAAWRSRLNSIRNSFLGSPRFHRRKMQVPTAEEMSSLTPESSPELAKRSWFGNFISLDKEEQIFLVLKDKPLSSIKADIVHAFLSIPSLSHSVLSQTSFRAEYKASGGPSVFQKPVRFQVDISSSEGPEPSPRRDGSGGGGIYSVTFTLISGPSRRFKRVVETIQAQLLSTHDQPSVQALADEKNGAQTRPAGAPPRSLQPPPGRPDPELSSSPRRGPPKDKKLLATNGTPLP
# Misshapen-like kinase 1 (Homo sapiens), sequence (Q8N4C8 whole entry, looked up, the tested form may be a part): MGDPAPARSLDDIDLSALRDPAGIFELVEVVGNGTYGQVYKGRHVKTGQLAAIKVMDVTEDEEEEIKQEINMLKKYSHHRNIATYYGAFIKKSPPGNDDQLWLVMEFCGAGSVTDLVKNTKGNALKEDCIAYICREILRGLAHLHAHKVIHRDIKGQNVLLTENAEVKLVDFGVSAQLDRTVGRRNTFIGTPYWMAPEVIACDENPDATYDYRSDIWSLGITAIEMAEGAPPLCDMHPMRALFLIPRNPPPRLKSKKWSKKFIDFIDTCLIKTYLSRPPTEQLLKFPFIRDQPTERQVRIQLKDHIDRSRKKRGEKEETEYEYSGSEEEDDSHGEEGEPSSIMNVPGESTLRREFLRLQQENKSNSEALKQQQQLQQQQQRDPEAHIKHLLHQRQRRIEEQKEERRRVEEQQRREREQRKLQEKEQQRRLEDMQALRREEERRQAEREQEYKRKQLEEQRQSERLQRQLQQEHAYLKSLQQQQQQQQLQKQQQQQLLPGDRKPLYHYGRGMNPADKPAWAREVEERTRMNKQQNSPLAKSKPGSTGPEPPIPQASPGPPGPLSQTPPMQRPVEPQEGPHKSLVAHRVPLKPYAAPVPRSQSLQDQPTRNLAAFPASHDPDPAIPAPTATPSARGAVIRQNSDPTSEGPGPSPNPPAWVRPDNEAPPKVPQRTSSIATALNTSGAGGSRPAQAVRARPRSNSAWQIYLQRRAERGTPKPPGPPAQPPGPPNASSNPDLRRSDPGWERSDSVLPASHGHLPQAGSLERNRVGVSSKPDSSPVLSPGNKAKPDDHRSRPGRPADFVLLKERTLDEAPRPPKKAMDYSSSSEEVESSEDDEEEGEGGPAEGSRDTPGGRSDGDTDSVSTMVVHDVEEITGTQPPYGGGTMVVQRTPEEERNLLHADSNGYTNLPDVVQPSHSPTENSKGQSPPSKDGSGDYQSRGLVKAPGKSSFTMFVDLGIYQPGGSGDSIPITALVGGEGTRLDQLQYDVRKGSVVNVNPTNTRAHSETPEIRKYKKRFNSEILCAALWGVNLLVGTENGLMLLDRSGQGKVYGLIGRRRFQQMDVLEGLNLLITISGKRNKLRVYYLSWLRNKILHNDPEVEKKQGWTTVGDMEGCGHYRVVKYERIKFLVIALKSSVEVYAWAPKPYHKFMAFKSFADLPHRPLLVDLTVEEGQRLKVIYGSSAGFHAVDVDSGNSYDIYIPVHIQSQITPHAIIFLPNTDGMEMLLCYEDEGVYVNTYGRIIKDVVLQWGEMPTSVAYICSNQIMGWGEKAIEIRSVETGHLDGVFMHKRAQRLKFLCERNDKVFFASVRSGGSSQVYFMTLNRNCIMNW
# Dual specificity mitogen-activated protein kinase kinase 1 (Homo sapiens), sequence (Q02750 whole entry, the tested form may be a part): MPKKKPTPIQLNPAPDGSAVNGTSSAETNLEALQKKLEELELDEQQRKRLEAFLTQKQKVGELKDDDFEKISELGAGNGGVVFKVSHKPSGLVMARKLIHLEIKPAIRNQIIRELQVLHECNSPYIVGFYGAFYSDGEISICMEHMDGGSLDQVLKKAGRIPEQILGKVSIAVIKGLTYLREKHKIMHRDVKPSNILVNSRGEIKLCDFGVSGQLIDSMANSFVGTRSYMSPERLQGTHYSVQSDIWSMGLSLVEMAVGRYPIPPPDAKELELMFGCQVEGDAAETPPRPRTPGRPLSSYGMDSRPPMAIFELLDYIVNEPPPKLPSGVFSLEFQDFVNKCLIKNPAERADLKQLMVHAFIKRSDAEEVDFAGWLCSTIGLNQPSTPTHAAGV
structure (smiles),measurement,setting,value
CS(=O)(=O)c1ccc(-n2nc(-c3cnc4[nH]ccc4c3)c3c(N)ncnc32)cc1,inhibition,[1],85%
same,inhibition,[2],66%
same,inhibition,[3],0%
same,inhibition,[4],-6%
same,inhibition,[5],-7%
same,inhibition,[6],13%
same,inhibition,[7],38%
same,inhibition,[8],30%
same,inhibition,[9],13%
same,inhibition,[10],-1%
same,inhibition,[11],-6%
same,inhibition,[12],-1%
same,inhibition,[13],-10%
same,inhibition,[14],-4%
same,inhibition,[15],19%
same,inhibition,[16],15%
same,inhibition,[17],3%
same,inhibition,[18],10%
same,inhibition,[19],-8%
same,inhibition,[20],94%
same,inhibition,[21],14%
same,inhibition,[22],4%
same,inhibition,[23],35%
same,inhibition,[24],0%

# Source: ChEMBL document CHEMBL4190187, “Discovery of pyrazolopyrimidine derivatives as novel inhibitors of ataxia telangiectasia and rad3 related protein (ATR)” (Bioorg Med Chem Lett, 2017)
